Experimental data reported in patent publication US20170182047A9, “Post-Translational Regulation of Catalytic Activities of Cytochrome P450 46A1 and Uses Thereof” (The Board of Regents of the University of Texas System, priority 2007, published 2017).
Like-named read-outs stand apart in the source and are kept apart here.

How the values were obtained:
[1] = Brain levels of voriconazole; format: in vivo, C57/B6 J mice; conditions: after 5 daily intraperitoneal injections (60 mg/kg body weight)
Method: (§1) The mice were sacrificed by cervical dislocation.
Voriconazole was determined in serum and brain homogenates after the extraction with chloroform/methanol (2:1, v:v) and ethanol (10%, v/v, final), respectively. Voriconazole extract (100 μL) was then mixed with 200 μL acetonitrile, centrifuged at 10,000 g for 10 min, and 1 μL of the supernatant injected onto a Phenomenex Luna C18 3 μm column (100×2 mm) connected to the Agilent 1100 liquid chromatography-mass spectrometry system with an autosampler and solvent degasser. Gradient elution was with initial 35% B increasing to 100% B in 5 min (A=1% acetonitrile with 25 mM formic acid; B=100% acetonitrile with 25 mM formic acid). A structure analogue (UK115794, Pfizer Ltd) was used as internal standard. Ions were monitored in a positive mode at m/z 350 (voriconazole) and m/z 348 (internal standard).

CYP11A1 = molecular target: T1, CYP11A1 (Bos taurus, UniProt P00189); assay: Spectral binding assay of antifungal azoles; design: species or system bovine
T1 construct: Recombinant full-length human CYPs 46A1 and 27A1 and bovine CYP11A1 were expressed and purified; made in house
T1 sequence (P00189 40-520): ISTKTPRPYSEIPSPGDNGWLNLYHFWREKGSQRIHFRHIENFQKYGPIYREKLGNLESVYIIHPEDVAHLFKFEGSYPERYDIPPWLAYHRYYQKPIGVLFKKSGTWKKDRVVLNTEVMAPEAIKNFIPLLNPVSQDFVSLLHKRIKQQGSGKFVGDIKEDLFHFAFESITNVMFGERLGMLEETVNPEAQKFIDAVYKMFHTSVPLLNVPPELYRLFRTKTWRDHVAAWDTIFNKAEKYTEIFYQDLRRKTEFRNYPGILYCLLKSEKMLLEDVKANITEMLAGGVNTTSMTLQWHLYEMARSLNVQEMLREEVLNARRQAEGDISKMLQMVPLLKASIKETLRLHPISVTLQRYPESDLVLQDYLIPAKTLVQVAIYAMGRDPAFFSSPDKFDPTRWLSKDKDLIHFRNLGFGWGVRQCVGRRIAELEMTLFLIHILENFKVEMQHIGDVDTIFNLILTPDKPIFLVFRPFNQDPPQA
Method: (§2) Titrations of CYP46A1 were carried out in 50 mM potassium phosphate buffer (KPi), pH 7.2, containing 100 mM NaCl and 0.02% Cymal 6. CYPs 11A1 and 27A1 were in 50 mM KPi without any additives. Antifungal drugs were added from 0.2-5 mM stocks in 50% methanol. The apparent Kd and maximal absorbance change were estimated by non-linear least squares fitting using the quadratic form of the single-site binding equation (9).

CYP27A1 = molecular target: T2, CYP27A1 (Homo sapiens, UniProt Q02318); assay: Spectral binding assay of antifungal azoles; conditions: up to 100 μM
T2 construct: Recombinant full-length human CYPs 46A1 and 27A1 and bovine CYP11A1 were expressed and purified; made in house
T2 sequence (Q02318 34-531): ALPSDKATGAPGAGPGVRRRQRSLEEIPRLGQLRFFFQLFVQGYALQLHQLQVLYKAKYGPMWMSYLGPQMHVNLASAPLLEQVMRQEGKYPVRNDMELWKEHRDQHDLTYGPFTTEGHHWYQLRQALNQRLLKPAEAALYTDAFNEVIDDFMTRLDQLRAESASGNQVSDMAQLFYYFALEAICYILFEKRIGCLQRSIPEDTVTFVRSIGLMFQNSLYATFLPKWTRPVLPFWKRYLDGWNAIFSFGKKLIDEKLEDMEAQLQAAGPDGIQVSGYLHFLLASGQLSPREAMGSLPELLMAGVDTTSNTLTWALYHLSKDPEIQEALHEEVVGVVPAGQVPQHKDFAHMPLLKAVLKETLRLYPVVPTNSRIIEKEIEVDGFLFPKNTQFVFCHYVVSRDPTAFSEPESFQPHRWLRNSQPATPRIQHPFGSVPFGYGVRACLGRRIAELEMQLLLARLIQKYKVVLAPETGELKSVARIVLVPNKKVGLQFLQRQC
Method: as §2

CYP46A1 [2] = molecular target: T3, CYP46A1 (Homo sapiens, UniProt Q9Y6A2); assay: Spectral binding assay of antifungal azoles; design: Recombinant full-length human CYPs 46A1 and 27A1 and bovine CYP11A1 were expressed and purified; made in house; conditions: 0.3 μM purified P450; read-out: estimated Kd
Method: as §2

[3] = test system: genes involved in cholesterol homeostasis; assay: mRNA expression in mouse brain after voriconazole; format: in vivo, C57/B6 J mice; conditions: 5 daily i.p. injections 60 mg/kg
Method: as §1
Total RNA was obtained from brain and liver tissue using Trizol (Invitrogen, Carlsbad, Calif.). cDNA was synthesised from 2 μg of total RNA using Capacity cDNA ReverseTranscription Kit (Applied Biosystems, Foster City, Calif.). Steady-state mRNA levels were estimated using Taqman probes (primer sequences available on request). All assays were run on an ABI Prism 7000 Sequense Detection System (Applied Biosystems; Foster City, Calif.). Estimation of a relative gene expression was performed using the comparative threshold cycle method, using hypoxathine-guanine phosphoribosyl transferase as endogenous control.

CYP46A1 [4] = molecular target: T3, CYP46A1; assay: In vitro IC50 and Ki for CYP46A1-catalysed hydroxylation; format: biochemical; design: Recombinant full-length human CYPs 46A1 and 27A1 and bovine CYP11A1 were expressed and purified; made in house; conditions: for IC50: 5.4 μM cholesterol
Method: Cholesterol hydroxylation by CYP46A1 was assayed for 20 min at 37° C. in 1 ml of 50 mM KPi, pH 7.2, containing 100 mM NaCl, 0.02% Cymal 6, 40 μg dilauroylglycerol-3-phosphatidylcholine and 2U of catalase. […] The enzymatic reaction was initiated by NADPH (final 1 mM) and terminated by vortexing with 2 ml of CH2Cl2. The organic phase was isolated, evaporated, dissolved in methanol, and subjected to HPLC. […] In addition, the Ki for cholesterol 24-hydroxylation was estimated assuming a model of competitive inhibition.

full-length CYP46A1 = full-length CYP46A1 (Homo sapiens, UniProt Q9Y6A2); assay: Inhibition/stimulation of cholesterol hydroxylase activity at fixed 43 μM test compound; format: biochemical; conditions: 2.7 μM cholesterol, 43 μM compound; FIG. 4A-4C
Chain of full-length CYP46A1 (Q9Y6A2 whole entry): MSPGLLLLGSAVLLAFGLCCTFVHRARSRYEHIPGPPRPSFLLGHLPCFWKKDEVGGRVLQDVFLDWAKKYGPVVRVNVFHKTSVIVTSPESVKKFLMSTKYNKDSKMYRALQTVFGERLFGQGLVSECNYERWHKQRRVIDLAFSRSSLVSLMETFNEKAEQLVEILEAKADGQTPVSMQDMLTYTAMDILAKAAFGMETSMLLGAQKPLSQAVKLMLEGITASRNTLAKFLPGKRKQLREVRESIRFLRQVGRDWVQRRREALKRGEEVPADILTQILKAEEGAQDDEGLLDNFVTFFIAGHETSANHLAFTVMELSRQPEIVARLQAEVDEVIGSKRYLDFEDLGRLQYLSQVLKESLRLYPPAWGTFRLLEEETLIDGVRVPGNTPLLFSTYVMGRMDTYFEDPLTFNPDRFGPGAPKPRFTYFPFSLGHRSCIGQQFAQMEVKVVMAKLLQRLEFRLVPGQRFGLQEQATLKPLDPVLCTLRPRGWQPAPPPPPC

T3 sequence (Q9Y6A2 whole entry): as above

## C[C@@H](c1ncncc1F)[C@](O)(Cn1cncn1)c1ccc(F)cc1F [voriconazole]
[1]
  level of voriconazole in the brain: 43+8 μg/g wet weight
[1]; male, C57/B6 J, mouse, brain, read-out: level of voriconazole in the brain
  concentration at 5 days: 123 µM
CYP11A1; 0.3 μM purified P450, read-out: apparent Kd
  Kd: 4800 nM
CYP11A1; CYP11A1 vs CYP46A1
  binding weaker than that to CYP46A1: ~100 fold
CYP27A1
  spectral response: only a very weak spectral shift was observed
CYP46A1 [2]
  Kd: 50 nM
[3]
  effect on HMG CoA reductase mRNA levels: significant suppressive effect
  effect on expression of CYP46A1 mRNA: no significant effect
  effect on expression of HMG CoA synthase mRNA: no significant effect
CYP46A1 [4]; read-out: IC50 for cholesterol 24-hydroxylation
  IC50: 22 nM
CYP46A1 [4]; estimated, competitive inhibition, cholesterol equal to the Km, read-out: Ki for cholesterol 24-hydroxylation
  Ki: 11 nM
CYP46A1 [4]; read-out: IC50 for 25- and 27-hydroxylations of 24S-hydroxycholesterol
  IC50: 47 nM
full-length CYP46A1
  inhibition of cholesterol hydroxylation (in words): significant inhibition
